Laboratory results from patent publication US20080269142A1, “ENDOGENOUS THIADIAZABICYCLO GLUTATHIONE-ADDUCT” (priority 2006, published 2008).

System: EA.hy 926 endothelial cells
Assay: Apoptosis (morphological changes) in treated EA.hy 926 endothelial cells
Assay type: cell-based
Experimental: EA.hy 926 endothelial cells were incubated in DMEM (10 mL) containing 10% FBS, 100 unit/mL of penicillin, and 100 μg/mL of streptomycin at 37° C. in an atmosphere of 5% CO2. After the cells reached 70-80% confluence (approximately 2×10^6 cells), the complete DMEM was removed and replaced with FBS-free DMEM for treatment with dimethyl-TOG.
As the result, there was little accumulation of TOG in the cells. […] Therefore, high doses of dimethyl-TOG (100 μM and 200 μM) were chosen to detect an apoptosis-inducing effect. When the cells were treated with dimethyl-TOG, typical morphological changes of apoptosis, such as detachment from the substrate, shrinkage, and membrane blebbing were observed as early as 1 h after treatment.
GGT mediates the first step of hydrolysis of extracellular GSH. The hydrolyzed amino acids will be transported back to the cells for GSH biosynthesis (4). Without GGT activity, there would be accumulation of GSH in the extracellular medium and depletion of intracellular GSH.

CCCCCC(=O)/C=C/C=O [ONE, 4-oxo-2(E)-nonenal]
apoptosis after 8 h of incubation (10 μM ONE, 8 h): most of the cells treated with 10 μM ONE went to complete apoptosis | apoptosis-inducing effect (ONE 1 μM alone): no apoptosis-inducing effect
